The series can be described thus: Hydrolysis rate of betaine ester, pH-stat titrator at constant pH and temperature. The series is classed as physicochemical. Particulars: for profile of hydrolysis: dependence on pH. As to the method:
Test realised under pH-stat configuartion, at controlled temperature (40°C). Concentration in betaine ester used 1.5.10^-2 mol/l
[formula] Test conditions: C12 BEG added to a solution (pH 10.5) of sodium stearate in distilled water. pH and temperature maintained constant all along the test. Percentage of C12 BEG hydrolysed assessed using an automatic pH stat titrator. Concentrations used: C12 BEG 1.25 10^-2 mol/l Sodium stearate: 1 equivalent 1.25 10^-2 mol/l 2 equivalents 2.5 10^-2 mol/l
[formula] • Hydrolysis rate determined with a Radiometer pH stat. • Temperature (40°C) and pH (10.5) maintained constant. Concentration in C12 BEG or new ion pair C12 BEG/DS: 10^-3 mol/l. • Mixture anionic/nonionic: sodium dodecylsulfate (0.43 g/l), sodium stearate (0.013 g/l), alkylethoxylate (Dobanol 45 7 from Shell, 0.38 g/l), N-cocoyl-N-methylglucamine (0.16 g/l). • Kinetics of hydrolysis of C12 BEG/DS, with or without surfactants all follow a first order in [C12BEG/DS].

Setting [1] is: 40°C, pH 10.5, with 1 equivalent of sodium dodecylsulfate.
Where [2] appears, read: 40°C, pH 10.5, with 3 equivalents of sodium dodecylsulfate.
The mark [3] stands for this setting: 40°C, pH 10.5, with 5 equivalents of sodium dodecylsulfate.
The mark [4] stands for this setting: 40°C, pH 10.5, with 10 equivalents of sodium dodecylsulfate.
Setting [5] is: 40°C, pH 8.5, 1.25 10^-2 mol/l, alone.
[6] abbreviates: 40°C, pH 8.5, with 1 equivalent sodium stearate.
The mark [7] stands for this setting: 40°C, pH 8.5, with 2 equivalent sodium stearate.
Where [8] appears, read: 40°C, pH 10.5, 1.25 10^-2 mol/l, with 2 equivalents of sodium dodecylsulfate.
Setting [9] is: 40°C, pH 10.5, 1.25 10^-2 mol/l, with 4 equivalents of sodium dodecylsulfate.
Where [10] appears, read: 40°C, pH 10.5, 1.25 10^-2 mol/l, with 9 equivalents of sodium dodecylsulfate.
Where [11] appears, read: 40°C, pH 10.5, 10^-3 mol/l, with mixture anionic/nonionic.
Where [12] appears, read: 40°C, pH 10.5, 10^-3 mol/l, with sodium dodecylsulfate only.
[13] abbreviates: 40°C, pH 10.5, ion pair 1.25 10^-2 mol/l alone.
Where [14] appears, read: 40°C, pH 10.5, ion pair 10^-3 mol/l alone.

SMILES strings stand for the structures. Where two headings read alike, the source gives them in different places. A value given as a limit tells only on which side of the number the result lay.

As for `CC(C)=CCC/C(C)=C/COC(=O)C[N+](C)(C)C.[Cl-]` [BEG, geranyloxycarbonyl-N,N,N-trimethylmethanaminium chloride], the profile of hydrolysis entry is “very dependent on pH”. In addition, where the note is “40°C, pH 10.5, alone”, the k is listed as 3950 mol^- ^1.l.min^-1 and the “kobs at pH 10.5” value is reported as 1.25 min^-1. Under setting [1], the k is on record as 202 mol^- ^1.l.min^-1 and the “kobs at pH 10.5” value was found to be 0.064 min^-1. Under setting [2], the k is given as 35 mol^- ^1.l.min^-1 and the “kobs at pH 10.5” value is given as 0.0111 min^-1. Moreover, under setting [3], the k was 23.5 mol^- ^1.l.min^-1 and the “kobs at pH 10.5” value is 0.0074 min^-1. Under setting [4], the k is given as 21 mol^- ^1.l.min^-1 and the “kobs at pH 10.5” value stood at 0.0067 min^-1. Further, the half-life (buffer, pH 10.5, 40°C, pH 10.5, alone, read-out: t1/2 at pH 10.5) is about 0.5 min. The Hydrolysis profile entry (pH-stat, 40°C, betaine ester 1.5.10^-2 mol/l) is “very pH dependent”. Further, the half-life (solution with 1 equivalent sodium dodecylsulfate, pH 10.5, 40°C, pH 10.5, with 1 equivalent of sodium dodecylsulfate, read-out: t1/2 at pH 10.5) turned out to be 10.8 min. Also, the half-life (solution with 3 equivalents sodium dodecylsulfate, pH 10.5, 40°C, pH 10.5, with 3 equivalents of sodium dodecylsulfate, read-out: t1/2 at pH 10.5) turned out to be 63 min. Further, the half-life (solution with 5 equivalents sodium dodecylsulfate, pH 10.5, 40°C, pH 10.5, with 5 equivalents of sodium dodecylsulfate, read-out: t1/2 at pH 10.5) turned out to be 93 min. Also, the half-life (solution with 10 equivalents sodium dodecylsulfate, pH 10.5, 40°C, pH 10.5, with 10 equivalents of sodium dodecylsulfate, read-out: t1/2 at pH 10.5) was determined as 104 min.
As to `CCCCCCCCCCCC[N+](C)(C)CC(=O)OC/C=C(\C)CCC=C(C)C.[Br-]` [C12 BEG, Geranyloxycarbonyl-N,N-dimethyl-N-dodecylmethanaminium bromide], the profile of hydrolysis entry is recorded as “very dependent on pH”. Moreover, under “40°C, alone”, the “kobs at pH 8.5” value was over 30 min^-1. In addition, under setting [5], the k is on record as >100 000 mol^- ^1.l.min^-1 and the “kobs at pH 8.5” value is recorded as over 0.3 min^-1. Under setting [6], the k is recorded as 20 333 mol^- ^1.l.min^-1 and the “kobs at pH 8.5” value is 0.0643 min^-1. Further, under setting [7], the k is 904 mol^- ^1.l.min^-1 and the “kobs at pH 8.5” value worked out at 0.00286 min^-1. For the setting “40°C, pH 10.5, 1.25 10^-2 mol/l, alone”, the k is >100 000 mol^- ^1.l.min^-1. The k (40°C, pH 10.5, 10^-3 mol/l, alone) is reported as over 15000 mol^- ^1.l.min^-1. Where the note is “40°C, pH 10.5, alone”, the k was >100 000 mol^- ^1.l.min^-1. The compound also came in with a k obs (40°C, pH 10.5, high betaine ester concentration 1.25 10^-2 mol/l, alone) of over 30 min⁻¹. The compound also returned a k obs (40°C, pH 10.5, lower concentration 10^-3 mol/l, alone) of over 5 min⁻¹. In addition, the k (40°C, pH 10.5, with 1 equivalent sodium dodecylsulfate) stood at 5.3 mol^- ^1.l.min^-1. The k (40°C, pH 10.5, with 1 equivalent sodium hexadecylsulfonate) is 1580 mol^- ^1.l.min^-1. Moreover, the k (40°C, pH 10.5, with 2 equivalents sodium stearate) turned out to be 1265 mol^- ^1.l.min^-1. The “kobs at pH 8.5” value (40°C, with 1 equivalent sodium dodecylsulfate) is on record as 0.0017 min^-1. Further, where the note is “40°C, with 1 equivalent sodium hexadecylsulfonate”, the “kobs at pH 8.5” value was found to be 0.5 min^-1. The “kobs at pH 8.5” value (40°C, with 2 equivalents sodium stearate) came to 0.4 min^-1. The half-life at 0.0125 mol/l (buffer, pH 8.5, 40°C, pH 8.5, 1.25 10^-2 mol/l, alone, read-out: t1/2 pH 8.5) was under 2 min. Besides, the half-life at 0.0125 mol/l (buffer, pH 10.5, 40°C, pH 10.5, 1.25 10^-2 mol/l, alone, read-out: t1/2) is under 0.0333 min. Also, the half-life (buffer, pH 10.5, 40°C, pH 10.5, 10^-3 mol/l, alone, read-out: t1/2) is under 0.167 min. In addition, the half-life (buffer, pH 10.5, 40°C, pH 10.5, alone, read-out: t1/2 pH 10.5) is under 0.0333 min. Also, the “rate of hydrolysis at pH neutral (∼7)” value (compared with a normal ester, C12 BEG 1.25 10^-2 mol/l) is “far faster than for a normal ester”. Besides, for the setting “sodium stearate solution in distilled water (1 equivalent), pH 8.5, 40°C, pH 8.5, with 1 equivalent sodium stearate, read-out: t1/2 pH 8.5”, the half-life at 0.0125 mol/l turned out to be 11 min. Also, the half-life at 0.0125 mol/l (sodium stearate solution in distilled water (2 equivalents), pH 8.5, 40°C, pH 8.5, with 2 equivalent sodium stearate, read-out: t1/2 pH 8.5) stood at 243 min. Further, for the setting “sodium stearate solution in distilled water (2 equivalents), pH 10.5, 40°C, pH 10.5, with 2 equivalents sodium stearate, read-out: t1/2 pH 10.5”, the half-life at 0.0125 mol/l is 1.7 min. In addition, the half-life (solution with 1 equivalent sodium dodecylsulfate, pH 10.5, 40°C, pH 10.5, with 1 equivalent sodium dodecylsulfate, read-out: t1/2 pH 10.5) came to 414 min. Besides, the half-life (solution with 1 equivalent sodium hexadecylsulfonate, pH 10.5, 40°C, pH 10.5, with 1 equivalent sodium hexadecylsulfonate, read-out: t1/2 pH 10.5) was found to be 1.4 min.
With `CCCCCCCCCCCCOS(=O)(=O)[O-].CCCCCCCCCCCC[N+](C)(C)CC(=O)OC/C=C(\C)CCC=C(C)C` [C12 BEG/DS], the k is on record as 10.6 mol^- ^1.l.min^-1 under setting [8]; 26.1 mol^- ^1.l.min^-1 under setting [9]; 32.8 mol^- ^1.l.min^-1 under setting [10]; 37 mol^- ^1.l.min^-1 under setting [11]; 28.6 mol^- ^1.l.min^-1 under setting [12]; 229 mol^- ^1.l.min^-1 under setting [13]. The compound further showed a k under setting [14] of 423.7 mol^- ^1.l.min^-1. Further, the k obs is 0.0034 min⁻¹ under setting [8]; 0.0083 min⁻¹ under setting [9]; 0.0104 min⁻¹ under setting [10]; 0.01169 min⁻¹ under setting [11]; 0.0095 min⁻¹ under setting [12]; 0.0724 min⁻¹ under setting [13]. Under setting [14], this compound yielded a k obs of 0.134 min⁻¹. Moreover, the t1/2 is given as 206 min (40°C, pH 10.5, 1.25 10^-2 mol/l, with 2 equivalents of sodium dodecylsulfate, 12500 µM); 84 min (40°C, pH 10.5, 1.25 10^-2 mol/l, with 4 equivalents of sodium dodecylsulfate, 12500 µM); 67 min (40°C, pH 10.5, 1.25 10^-2 mol/l, with 9 equivalents of sodium dodecylsulfate, 12500 µM); 59 min (40°C, pH 10.5, 10^-3 mol/l, with mixture anionic/nonionic, 1000 µM); 77 min (40°C, pH 10.5, 10^-3 mol/l, with sodium dodecylsulfate only, 1000 µM); 9.6 min (40°C, pH 10.5, ion pair 1.25 10^-2 mol/l alone, 12500 µM). Besides, the t1/2 (40°C, pH 10.5, ion pair 10^-3 mol/l alone, 1000 µM) was found to be 5.2 min.

The values are drawn from patent EP0752465A1, “Betaine esters for delivery of alcohols” (THE PROCTER & GAMBLE COMPANY, priority 1995, dated 1997).
